The values that follow come from patent US7501443B2, “Flavaxate derivatives as muscarinic receptor antagonists” (Ranbaxy Laboratories Limited, priority 2002, dated 2009).

Data set [1] has as its target T1, M2 muscarinic receptor (Rattus norvegicus, UniProt P10980).
T1 construct: Submandibular glands and heart were isolated and placed in ice cold homogenising buffer; from tissue; host or cells: rat heart membrane homogenate
T1 sequence (P10980 1-466): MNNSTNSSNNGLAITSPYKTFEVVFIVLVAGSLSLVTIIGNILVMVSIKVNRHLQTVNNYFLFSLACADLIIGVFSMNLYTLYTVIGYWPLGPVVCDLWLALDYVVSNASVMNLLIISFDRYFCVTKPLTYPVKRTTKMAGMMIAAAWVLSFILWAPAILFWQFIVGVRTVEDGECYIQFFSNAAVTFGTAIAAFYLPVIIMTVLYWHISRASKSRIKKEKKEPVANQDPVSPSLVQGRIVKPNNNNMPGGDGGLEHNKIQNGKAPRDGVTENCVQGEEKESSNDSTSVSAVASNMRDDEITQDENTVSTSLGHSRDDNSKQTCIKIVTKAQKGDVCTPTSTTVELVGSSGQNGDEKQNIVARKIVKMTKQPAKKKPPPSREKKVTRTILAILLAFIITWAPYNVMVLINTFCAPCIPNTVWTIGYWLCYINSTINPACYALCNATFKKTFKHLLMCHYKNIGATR
As to the kind of experiment: Radioligand binding assay, [3H]-N-methylscopolamine, rat heart membranes. The settings on record: [3H]-NMS binding, Ki by Cheng & Prusoff; for pKi: read-out: M2 pki. As to the method:
(§1) Radioligand Binding Assays: • The affinity of test compounds for M2 and M3 muscarinic receptor subtypes was determined by [^3H]-N-methylscopolamine binding studies using rat heart and submandibular gland respectively as described by Moriya et al., (Life Sci, 1999, 64(25):2351-2358) with minor modifications. Membrane preparation: Submandibular glands and heart were isolated and placed in ice cold homogenising buffer (HEPES 20 mM, 10 mM EDTA, pH 7.4) immediately after sacrifice. The tissues were homogenised in 10 volumes of homogenising buffer and the homogenate was filtered through two layers of wet gauze and filtrate was centrifuged at 500 g for 10 min. The supernatant was subsequently centrifuged at 40,000 g for 20 min. The pellet thus obtained was resuspended in same volume of assay buffer (HEPES 20 mM, EDTA 5 mM, pH 7.4) and were stored at −70° C. until the time of assay. Ligand binding assay: The compounds were dissolved and diluted in DMSO. The membrane homogenates (150-250 μg protein) were incubated in 250 μl of assay buffer (HEPES 20 mM, pH 7.4) at 24-25° C. for 3 h. Non-specific binding was determined in the presence of 1 μM atropine. The incubation was terminated by vacuum filtration over GF/B fiber filters(Wallac). The filters were then washed with ice cold 50 mM Tris HCl buffer (pH 7.4). The filter mats were dried and bound radioactivity retained on filters was counted. The IC50 & Kd were estimated by using the non-linear curve fitting program using G Pad Prism software. The value of inhibition constant Ki was calculated from competitive binding studies by using Cheng & Prusoff equation (Biochem Pharmacol, 1973, 22: 3099-3108), Ki=IC50/(1+L/Kd), where L is the concentration of [^3H]NMS used in the particular experiment. pki is—[log Ki].

For data set [2], the target named is T2, M3 muscarinic receptor (Rattus norvegicus, UniProt P08483).
T2 construct: Submandibular glands and heart were isolated and placed in ice cold homogenising buffer; from tissue; host or cells: rat submandibular gland membrane homogenate
T2 sequence (P08483 whole entry): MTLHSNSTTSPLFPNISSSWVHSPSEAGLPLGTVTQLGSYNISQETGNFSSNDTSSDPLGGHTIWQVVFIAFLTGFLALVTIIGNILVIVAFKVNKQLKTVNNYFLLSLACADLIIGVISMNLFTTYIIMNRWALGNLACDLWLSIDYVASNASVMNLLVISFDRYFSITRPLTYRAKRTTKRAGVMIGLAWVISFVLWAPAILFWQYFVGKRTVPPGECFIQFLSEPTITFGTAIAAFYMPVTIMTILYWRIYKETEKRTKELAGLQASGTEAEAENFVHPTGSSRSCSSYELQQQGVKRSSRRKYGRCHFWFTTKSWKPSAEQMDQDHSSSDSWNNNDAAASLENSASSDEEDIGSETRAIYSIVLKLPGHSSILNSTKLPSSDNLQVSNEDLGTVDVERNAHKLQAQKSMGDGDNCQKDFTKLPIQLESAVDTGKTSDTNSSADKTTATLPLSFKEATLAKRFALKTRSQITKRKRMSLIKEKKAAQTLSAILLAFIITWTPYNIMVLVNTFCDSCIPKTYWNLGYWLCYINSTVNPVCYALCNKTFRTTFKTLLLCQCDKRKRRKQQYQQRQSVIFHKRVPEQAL
Put plainly: Radioligand binding assay, [3H]-N-methylscopolamine, rat submandibular gland membranes. To be noted: [3H]-NMS binding, Ki by Cheng & Prusoff; for pKi: read-out: M3 pki. As to the method:
as §1

pKi: −log10 of the molar value.

In the case of `Cc1c(-c2ccccc2)oc2c(C(=O)N[C@H]3[C@@H]4CN(Cc5ccccc5)C[C@@H]43)cccc2c1=O` [Compound No. 1, (1α,5α,6α)-6N-[3-benzyl-3-azabicyclo[3.1.0]hexyl]-3methyl-4-oxo-2-phenyl-4H-1-benzopyran-8-carboxamide], the melting point fell in the range of 182 to 184 °C. Further, the pKi in data set [1] was less than 5.00. Further, in data set [2], the pKi was less than 5.00.
`Cc1c(-c2ccccc2)oc2c(C(=O)N[C@H]3[C@@H]4CN(Cc5ccc(C#N)cc5)C[C@@H]43)cccc2c1=O` [Compound No. 2, (1α,5α,6α)-6N-[3-(4-cyanobenzyl)-3-azabicyclo[3.1.0]hexyl]-3-methyl-4-oxo-2-phenyl-4H-1-benzopyran-8-carboxamide]: the pKi in data set [1] and in data set [2] was less than 5.00 throughout.
For the compound `Cc1c(-c2ccccc2)oc2c(C(=O)NCC3C4CN(Cc5ccccc5)CC34)cccc2c1=O` (stereo not drawn) [Compound No. 3, (1α,5α,6α)-N-[3-benzyl-3-azabicyclo[3.1.0]hexyl-6-(aminomethyl)-yl]-3-methyl-4-oxo-2-phenyl-4H-1-benzopyran-8-carboxamide], the M2 pki in data set [1] is less than 5.3. The M3 pki in data set [2] came out at 5.1.
For `Cc1c(-c2ccccc2)oc2c(C(=O)NCC34CC3CN(Cc3ccccc3)C4)cccc2c1=O` (centres unmarked) [Compound No. 5, N-[3-benzyl-3-azabicyclo[3.1.0]hexyl-1-(aminomethyl)-yl]-3-methyl-4-oxo-2-phenyl-4H-1-benzopyran-8-carboxamide], the pKi in data set [1] and in data set [2] was less than 6.00 each time.
The compound “(1α,5α,6α)-N-[3-[4-methyl-3-pentenyl]-3-azabicylo[3.1.0]hexyl-6-(aminomethyl)-3-methyl-4-oxo-2-phenyl-4H-1-benzo-pyran-8-carboxamide [Compound No. 4]” showed an M2 pki in data set [1] of less than 6. For the same compound, in data set [2], the M3 pki is reported as less than 6.

In general, melting point refers to the temperature of the solid-liquid transition.
